target: T1, Aurora A (Homo sapiens, UniProt O14965); assay: IC50 determination for inhibitors of Aurora A (96 MTP-ELISA); format: biochemical; settings: His4-tagged full-length Aurora A 250 ng/ml, PKB-GSK2 200 nM, ATP 4 μM, 90 min room temperature, read-out: IC50 Aurora A kinase inhibition
T1 construct: C-terminally Histidine4 (His4)-tagged Aurora A full-length protein; His4 (C)
T1 sequence (O14965 1-403): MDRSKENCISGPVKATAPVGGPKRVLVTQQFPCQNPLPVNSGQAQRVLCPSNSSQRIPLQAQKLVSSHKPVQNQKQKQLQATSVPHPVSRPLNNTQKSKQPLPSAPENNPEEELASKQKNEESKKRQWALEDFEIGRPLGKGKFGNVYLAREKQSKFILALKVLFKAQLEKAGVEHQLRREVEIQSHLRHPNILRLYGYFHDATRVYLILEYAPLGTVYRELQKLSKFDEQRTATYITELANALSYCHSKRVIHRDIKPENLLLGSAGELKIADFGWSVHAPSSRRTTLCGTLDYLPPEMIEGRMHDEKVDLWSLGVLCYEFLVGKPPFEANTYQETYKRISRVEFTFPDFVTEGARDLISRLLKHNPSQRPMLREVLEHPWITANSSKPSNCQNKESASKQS
Description: Aurora A is a serine threonine kinase involved in spindle assembly and chromosome segregation. The assay is a typically ELISA-type assay where biotinylated substrate (PKB-GSK2) is phosphorylated. Phosphorylation is detected by peroxidase (POD) labelled polyclonal antibody (PAK<M-Ig>S-IgG-POD) and phosphopeptide monoclonal antibody (Mab) (MAK<P-GSK>M-27E5-IgG). The assay is validated for IC50-determination.
Assay plates: 96-well polystyrene plates, streptavidin-coated,
Samples: 10 mM in dimethylsulfoxide (DMSO)
Aurora A-His-4: C-terminally Histidine4 (His4)-tagged Aurora A full-length protein, stock solution 0.7 mg/ml, final conc.: 250 ng/ml
PKB-GSK2: biotinylated peptide derived from human GSK3-alpha sequence (Biotin-SGRARTSSFAEPGG-CONH2), stock solution 600 μM, final conc.: 200 nM
PAK<M-Ig>S-IgG-POD: Anti-mouse IgG, horse radish peroxidase(HRP)-linked Antibody, diluted in 3% BSA/PBS-T (1:10000), (Cell Signaling, Cat. No.: 7076)
MAK<P-GSK>M-27E5-IgG: Phospho-GSK-3-alpha (Ser 21) (27E5) Monoclonal Antibody, stock solution 1.85 mg/ml, diluted in 3% BSA/PBS-T (1:6000), final conc.: 0.31 μg/ml, (Cell Signaling, Cat. No.: 9337B)
ATP: Adenosine-5′-triphosphate 1 mM, diluted in kinase buffer, (Roche Diagnostics GmbH, Cat. No.: 127531-001,), final conc.: 4 μM
TRIS: 2-Amino-2-hydroxymethyl-1,3-propoanediol (“tris-(hydroxymethyl)-aminomethane”) (MERCK, Cat. No.: 108382.2500)
BSA: Bovine Serum Albumin Fraction V, fatty acid free (Roche Diagnostics GmbH, Cat. No. 9100221)
EDTA Titriplex III (di-Sodium-EDTA di-Hydrate), 120 mM, (MERCK, Cat. No.: 1.08418.1000)
ABTS buffer: ABTS (2,2′-azino-bis(3-ethylbenzthiazoline-6-sulfonic acid)) 16.7 mg/ml (Roche Diagnostics GmbH, Cat. No.: 1204530) • ABTS tablets: dissolve one ABTS tablet in 50 ml of working solution (ABTS buffer) (Roche Diagnostics GmbH, Cat. No.: 1112422 ) • Tween 20: Polysorbat 20 (Roche Diagnostics GmbH, Cat. No.: 10006394-001) • DTT: 1,4-Dithiothreitol (Roche Diagnostics GmbH, Cat. No.: 197777) • MgCl2×6H2O MERCK, Cat. No.: 105833.1000 • Kinase buffer: 50 mM TRIS, 10 mM MgCl2, 1 mM DTT, 0.1% Tween 20, pH 7.8 PBS-T (=Wash buffer) (PBS-T)10 g/l PBS(Phosphate buffered saline) with 0.033% Tween 20 • 3% BSA/PBS-T: 3% BSA dissolved in PBS-T Method
This assay is performed in 96-well format for IC50 determination with 5 samples (each with 8 concentrations by twofold testing), 100 μl incubation volume and the following plate layout:
S samples, with ATP, 1% DMSO, final conc.: a=100 μM, b=20 μM, c=4 μM, d=0.8 μM, e=0.16 μM, f=0.032 μM, g=0.0064 μM, h=0.00128 μM Step/Action • (1) Sample preparation: add 24 μl per well samples (descending sequence) diluted in kinase buffer to assay plate (final conc. for DMSO 1%). • 2. Add directly 16 μl Aurora-A-his-4 diluted in kinase buffer to assay plate. • 3. Add directly 40 μl per well PKB-GSK2/ATP mixture to assay plate, (final conc.: Aurora A=250 ng/ml, GSK2=200 nM, ATP=4 μM). Negative control: without ATP. • 4. Incubate assay plate for exactly 90 min at room temperature. • 5. Stop reaction by adding 20 μl EDTA in all wells. • 6. Wash assay plate 3× with 200 μl washing buffer per well. • 7. Add 100 μl MAK<P-GSK>M27E5-IgG (1:10000) and PAK<M-Ig>S-IgG-POD (1:6000) dissolved in 3% BSA/PBS-T to assay plate per well. • 8. Incubate assay plate for 60 min at room temperature. • 9. Wash assay plate 3× with 200 μl washing buffer per well • 10. Add 100 μl ABTS solution to assay plate per well, incubate for approx. 4 min at RT on MTP shaker. • 11. Measure absorption at 405/492 nm. • 12. Calculate % inhibition as: (1−(Esample−ENC)/(EPC−ENC))×100 1)
13. Calculate IC50 using a non-linear curve fit (XLfit software (ID Business Solution Ltd., Guilford, Surrey, UK))

Row | IC50 | Compound
1 | 100 to 250 nM | CC1(C)CC(=O)Nc2cc3nc(-c4n[nH]c5ccccc45)[nH]c3cc21 [Example 10, 2-(1H-Indazol-3-yl)-8,8-dimethyl-1,5,7,8-tetrahydro-imidazo[4,5-g]quinolin-6-one]
2 | 1 to 100 nM | CC1(C)C(=O)N(Cc2cccnc2)c2cc3[nH]c(-c4n[nH]c5ccccc45)nc3cc21 [Example 16, 2-(1H-Indazol-3-yl)-7,7-dimethyl-5-pyridin-3-ylmethyl-5,7-dihydro-3H-imidazo[4,5-f]indol-6-one]
3 | 1 to 100 nM | COCCN1C(=O)C(C)(C)c2cc3nc(-c4n[nH]c5ccccc45)[nH]c3cc21 [Example 18, 2-(1H-Indazol-3-yl)-5-(2-methoxy-ethyl)-7,7-dimethyl-5,7-dihydro-3H-imidazo[4,5-f]indol-6-one]
4 | 1 to 100 nM | CC1(C)C(=O)N(CC(O)CN2CCOCC2)c2cc3[nH]c(-c4n[nH]c5ccccc45)nc3cc21 (stereo not drawn) [Example 29, 5-(2-Hydroxy-3-morpholin-4-yl-propyl)-2-(1H-indazol-3-yl)-7,7-dimethyl-5,7-dihydro-3H-imidazo[4,5-f]indol-6-one]
5 | 1 to 100 nM | CC1(C)C(=O)N(Cc2nnn[nH]2)c2cc3[nH]c(-c4n[nH]c5ccccc45)nc3cc21 [Example 33, 2-(1H-Indazol-3-yl)-7,7-dimethyl-5-(1H-tetrazol-5-ylmethyl)-5,7-dihydro-3H-imidazo[4,5-f]indol-6-one]
6 | 1 to 100 nM | CN(C)CCNC(=O)CN1C(=O)C(C)(C)c2cc3nc(-c4n[nH]c5ccccc45)[nH]c3cc21 [Example 38, N-(2-Dimethylamino-ethyl)-2-[2-(1H-indazol-3-yl)-7,7-dimethyl-6-oxo-6,7-dihydro-3H-imidazo[4,5-f]indol-5-yl]-acetamide]
7 | 1 to 100 nM | CN1CCN(C(=O)CN2C(=O)C(C)(C)c3cc4nc(-c5n[nH]c6ccccc56)[nH]c4cc32)CC1 [Example 42, 2-(1H-Indazol-3-yl)-7,7-dimethyl-5-[2-(4-methyl-piperazin-1-yl)-2-oxo-ethyl]-5,7-dihydro-3H-imidazo[4,5-f]indol-6-one]

test system: HCT 116 cells; assay: Viability assay HCT 116 cells (CellTiter-Glo); format: cell-based; settings: Homo sapiens, HCT-116, 120 h, HCT 116 human colon carcinoma cells, 5 days incubation, CellTiter-Glo luminescence
Description: Viability Assay—HCT 116 Cells
A viability assay was performed using the CellTiter-Glo® Luminescent Cell Viability Assay (see Promega Corporation's Technical Bulletin No. 288, pp. 1-11 [revised 2/04] which is hereby incorporated by reference in its entirety). This assay is a homogeneous method of determining the number of viable cells in culture based on quantitation of the ATP present, an indicator of metabolically active cells. The assay is designed for use with multiwell formats, making it ideal for automated high-throughput screening (HTS), cell proliferation and cytotoxicity assays. The homogeneous assay procedure involves adding a single reagent (containing luciferase, luciferan substrate, and buffer) directly to cells cultured in serum-supplemented medium. Cell washing, removal of medium and multiple pipetting steps are not required. The system detects as few as 15 cells/well in a 384-well format in 10 minutes after adding reagent and mixing.
The homogeneous “add-mix-measure” format results in cell lysis and generation of a luminescent signal proportional to the amount of ATP present. The amount of ATP is directly proportional to the number of cells present in culture. The above-referenced assay generates a “glow-type” luminescent signal, produced by the luciferase reaction, which has a half-life generally greater than five hours, depending on cell type and medium used. The extended half-life eliminates the need to use reagent injectors and provides flexibility for continuous or batch mode processing of multiple plates. The unique homogeneous format avoids errors that may be introduced by other ATP measurement methods that require multiple steps.
HCT 116 cells (human colon carcinoma, ATCC-No. CCl-247) were cultivated in RPMI 1640 medium with GlutaMAX™ I (cell culture media that contains L-Alanyl-L-Glutamine [a stabilized a form/source of L-Glutamine] from Invitrogen, Cat-No. 61870-010), 2.5% Fetal Calf Serum (FCS, Sigma Cat-No. F4135 (FBS)); 100 Units/ml penicillin/100 μg/ml streptomycin (=Pen/Strep from Invitrogen Cat. No. 15140). For the assay the cells were seeded in 384 well plates, 1000 cells per well, in the same medium. The next day the test compounds were added in various concentrations ranging from 30 μM to 0.0015 μM (10 concentrations, 1:3 diluted). After 5 days the viability assay was done according to the instructions of the manufacturer. In brief: the cell-plate was equilibrated to room temperature for approximately 30 minutes and than the reagent (containing luciferase, luciferan substrate, and buffer) was added. The contents were carefully mixed for 15 minutes to induce cell lysis. After 45 minutes the luminescent signal was measured in Victor 2, (scanning multiwell spectrophotometer, Wallac).
Medium: RPMI 1640 with cell culture media containing L-Alanyl-L-Glutamine [GlutaMAX™ I (Invitrogen, Cat-Nr. 61870)], 5% FCS (Sigma Cat.-No. F4135), Pen/Strep (Invitrogen, Cat No. 15140). • HCT116 (ATCC-No. CCl-247): 1000 cells in 60 μl per well of 384 well plate (Greiner 781098, μClear-plate white) • After seeding incubate plates 24 h at 37° C., 5% CO2 2nd. Day: Induction (Treatment with Compounds, 10 Concentrations):
In order to achieve a final concentration of 30 μM as highest concentration […] of 10 mM compound stock solution were added directly to 163 μl media. Then step e) of the dilution procedure described below, was followed.

Row | IC50 | Compound
8 | 100 to 1000 nM | CCN1C(=O)C(C)(C)c2cc3nc(-c4n[nH]c5ccc(NS(=O)(=O)c6cc(F)ccc6F)cc45)[nH]c3cc21 [Example 141, N-[3-(5-Ethyl-7,7-dimethyl-6-oxo-3,5,6,7-tetrahydro-imidazo[4,5-f]indol-2-yl)-1H-indazol-5-yl]-2,5-difluoro-benzenesulfonamide]
9 | 100 to 1000 nM | CC(C)N1C(=O)C(C)(C)c2cc3[nH]c(-c4n[nH]c5ccc(NS(=O)(=O)c6ccc(F)cc6)cc45)nc3cc21 [Example 142, 4-Fluoro-N-[3-(5-isopropyl-7,7-dimethyl-6-oxo-1,5,6,7-tetrahydro-imidazo[4,5-f]indol-2-yl)-1H-indazol-5-yl]-benzenesulfonamide]
10 | 100 to 1000 nM | CC(C)N1C(=O)C(C)(C)c2cc3[nH]c(-c4n[nH]c5ccc(NS(=O)(=O)c6ccccc6S(C)(=O)=O)cc45)nc3cc21 [Example 143, N-[3-(5-Isopropyl-7,7-dimethyl-6-oxo-1,5,6,7-tetrahydro-imidazo[4,5-f]indol-2-yl)-1H-indazol-5-yl]-2-methanesulfonyl-benzenesulfonamide]
11 | 100 to 1000 nM | CC(C)N1C(=O)C(C)(C)c2cc3[nH]c(-c4n[nH]c5ccc(NS(=O)(=O)c6ccccc6[N+](=O)[O-])cc45)nc3cc21 [Example 144, N-[3-(5-Isopropyl-7,7-dimethyl-6-oxo-1,5,6,7-tetrahydro-imidazo[4,5-f]indol-2-yl)-1H-indazol-5-yl]-2-nitro-benzenesulfonamide]
12 | 1000 to 10000 nM | CCN1C(=O)C(C)(C)c2cc3nc(-c4n[nH]c5ccc(NC(C)=O)cc45)[nH]c3cc21 [Example 145, N-[3-(5-Ethyl-7,7-dimethyl-6-oxo-3,5,6,7-tetrahydro-imidazo[4,5-f]indol-2-yl)-1H-indazol-5-yl]-acetamide]

Source: patent US20060142247A1, “Tricyclic heterocycles” (priority 2004, published 2006)
